# Test results from ChEMBL document CHEMBL3526141, “Characterization of human liver enzymes involved in the biotransformation of boceprevir, a hepatitis C virus protease inhibitor” (Drug Metab Dispos, 2011).
# Experiments:
# [1] = test system: Liver cytosol; experiment: Drug metabolism in human liver cytosol treated with 20 uM [14C]SCH 534129 assessed as 100 uM diazepam-mediated inhibition of metabolite formation LC-MS/MS/FSA method; type: ADME, tissue-based; design: interact cpd dose 100 uM
# [2] = test system: Liver cytosol; experiment: Drug metabolism in human liver cytosol treated with 20 uM [14C]SCH 534129 assessed as 1 mM ibuprofen-mediated inhibition of metabolite formation LC-MS/MS/FSA method; type: ADME, tissue-based; design: interact cpd dose 1 mM
# [3] = Drug metabolism in human liver mitochondria treated with 20 uM assessed as compound formation in presence of NADPH generating system by LC-MS/MS/FSA method; type: ADME
# [4] = test system: Liver cytosol; experiment: Drug metabolism in human liver cytosol treated with 20 uM assessed as compound formation in presence of NADPH generating system by LC-MS/MS/FSA method; type: ADME
# [5] = test system: Plasma; experiment: Drug metabolism in human plasma treated with [14C]boceprevir assessed as ratio of drug level by LC-MS/MS method relative to boceprevir; type: ADME, cell-free
# [6] = Retention time of the compound by LC-MS/MS method; type: physicochemical
# [7] = Drug metabolism in human liver S9 fraction treated with 20 uM assessed as compound formation in presence of NADPH generating system by LC-MS/MS/FSA method; type: ADME, subcellular
# [8] = target: T1, Cytochrome P450 2B6 (Homo sapiens, UniProt P20813); experiment: Drug metabolism assessed as human CYP2B6-mediated compound formation from 5 uM [14C]boceprevir after 120 mins by LC-MS/FSA method relative to total [14C]boceprevir; type: ADME; settings: recombinant enzyme, 2 h
# T1 sequence (P20813 whole entry): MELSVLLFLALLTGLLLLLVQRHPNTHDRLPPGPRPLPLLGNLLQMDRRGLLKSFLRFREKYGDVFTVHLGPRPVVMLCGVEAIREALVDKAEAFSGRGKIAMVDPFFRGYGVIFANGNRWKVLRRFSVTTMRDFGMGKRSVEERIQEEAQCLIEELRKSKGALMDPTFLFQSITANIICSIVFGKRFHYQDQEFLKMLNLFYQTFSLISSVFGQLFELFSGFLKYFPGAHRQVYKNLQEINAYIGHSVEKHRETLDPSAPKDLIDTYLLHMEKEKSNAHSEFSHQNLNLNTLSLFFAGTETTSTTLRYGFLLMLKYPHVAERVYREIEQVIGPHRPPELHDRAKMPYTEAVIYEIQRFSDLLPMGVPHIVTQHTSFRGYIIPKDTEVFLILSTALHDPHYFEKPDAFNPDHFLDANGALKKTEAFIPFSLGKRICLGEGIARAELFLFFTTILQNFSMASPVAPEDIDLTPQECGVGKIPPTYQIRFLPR
# [9] = target: T2, Cytochrome P450 3A5 (Homo sapiens, UniProt P20815); experiment: Drug metabolism assessed as human CYP3A5-mediated compound formation from 5 uM [14C]boceprevir after 120 mins by LC-MS/FSA method relative to total [14C]boceprevir; type: ADME; settings: recombinant enzyme, 2 h
# T2 sequence (P20815 whole entry): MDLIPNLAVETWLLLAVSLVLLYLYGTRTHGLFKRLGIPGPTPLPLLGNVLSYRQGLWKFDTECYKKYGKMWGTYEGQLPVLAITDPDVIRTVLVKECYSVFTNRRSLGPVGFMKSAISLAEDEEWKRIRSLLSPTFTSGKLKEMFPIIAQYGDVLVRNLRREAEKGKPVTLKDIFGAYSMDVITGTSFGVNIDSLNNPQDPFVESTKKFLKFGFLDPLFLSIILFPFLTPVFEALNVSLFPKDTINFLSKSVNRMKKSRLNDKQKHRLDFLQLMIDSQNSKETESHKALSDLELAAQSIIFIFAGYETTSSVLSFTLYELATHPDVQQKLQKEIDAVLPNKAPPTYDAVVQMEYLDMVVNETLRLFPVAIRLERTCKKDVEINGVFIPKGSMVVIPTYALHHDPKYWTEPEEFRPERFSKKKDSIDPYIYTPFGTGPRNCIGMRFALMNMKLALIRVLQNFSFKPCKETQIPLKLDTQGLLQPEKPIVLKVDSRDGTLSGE
# [10] = target: T3, Cytochrome P450 3A4 (Homo sapiens, UniProt P08684); experiment: Drug metabolism assessed as human CYP3A4-mediated compound formation from 5 uM [14C]boceprevir after 120 mins by LC-MS/FSA method relative to total [14C]boceprevir; type: ADME; settings: recombinant enzyme, 2 h
# T3 sequence (P08684 whole entry): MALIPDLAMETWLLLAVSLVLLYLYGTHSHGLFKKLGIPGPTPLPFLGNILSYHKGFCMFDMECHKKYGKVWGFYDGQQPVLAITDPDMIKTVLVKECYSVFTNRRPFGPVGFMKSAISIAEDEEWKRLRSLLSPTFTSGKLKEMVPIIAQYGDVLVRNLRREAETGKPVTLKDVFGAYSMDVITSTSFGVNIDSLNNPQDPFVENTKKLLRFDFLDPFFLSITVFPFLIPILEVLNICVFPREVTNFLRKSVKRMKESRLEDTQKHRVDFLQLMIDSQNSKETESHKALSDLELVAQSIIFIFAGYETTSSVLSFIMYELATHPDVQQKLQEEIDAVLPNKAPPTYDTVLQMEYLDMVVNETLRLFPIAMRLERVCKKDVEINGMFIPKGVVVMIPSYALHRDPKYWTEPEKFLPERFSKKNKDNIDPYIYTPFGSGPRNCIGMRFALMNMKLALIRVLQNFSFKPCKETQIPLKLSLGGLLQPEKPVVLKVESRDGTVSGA
# [11] = target: T4, Cytochrome P450 4F3 (Homo sapiens, UniProt Q08477); experiment: Drug metabolism assessed as human CYP4F3A-mediated compound formation from 5 uM [14C]boceprevir after 120 mins by LC-MS/FSA method relative to total [14C]boceprevir; type: ADME; settings: recombinant enzyme, 2 h
# T4 sequence (Q08477 whole entry): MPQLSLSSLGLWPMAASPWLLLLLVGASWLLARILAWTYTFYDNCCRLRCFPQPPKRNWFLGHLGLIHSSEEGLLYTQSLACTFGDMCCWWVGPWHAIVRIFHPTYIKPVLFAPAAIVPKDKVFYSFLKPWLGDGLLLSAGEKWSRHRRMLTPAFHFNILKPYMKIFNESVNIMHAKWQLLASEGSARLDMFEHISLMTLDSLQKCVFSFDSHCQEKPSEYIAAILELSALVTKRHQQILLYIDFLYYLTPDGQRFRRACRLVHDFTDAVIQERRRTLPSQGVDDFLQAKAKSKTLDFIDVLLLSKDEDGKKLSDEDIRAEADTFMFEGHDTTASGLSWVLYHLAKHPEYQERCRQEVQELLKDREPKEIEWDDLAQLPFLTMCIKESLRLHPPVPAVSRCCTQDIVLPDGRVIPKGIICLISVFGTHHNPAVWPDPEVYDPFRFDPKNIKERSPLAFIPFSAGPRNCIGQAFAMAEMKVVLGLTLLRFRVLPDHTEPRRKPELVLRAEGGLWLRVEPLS
# [12] = target: T2, Cytochrome P450 3A5; experiment: Drug metabolism assessed as human CYP3A5-mediated compound formation from 20 uM [14C]boceprevir after 120 mins by LC-MS/FSA method relative to total [14C]boceprevir; type: ADME; settings: recombinant enzyme, 2 h
# [13] = target: T3, Cytochrome P450 3A4; experiment: Drug metabolism assessed as human CYP3A4-mediated compound formation from 20 uM [14C]boceprevir after 120 mins by LC-MS/FSA method relative to total [14C]boceprevir; type: ADME; settings: recombinant enzyme, 2 h
# [14] = target: Cytochrome P450 2D6 (Homo sapiens, UniProt P10635); experiment: Drug metabolism assessed as human CYP2D6-mediated compound formation from 5 uM [14C]boceprevir after 120 mins by LC-MS/FSA method relative to total [14C]boceprevir; type: ADME; settings: recombinant enzyme, 2 h
# Cytochrome P450 2D6, sequence (P10635 whole entry): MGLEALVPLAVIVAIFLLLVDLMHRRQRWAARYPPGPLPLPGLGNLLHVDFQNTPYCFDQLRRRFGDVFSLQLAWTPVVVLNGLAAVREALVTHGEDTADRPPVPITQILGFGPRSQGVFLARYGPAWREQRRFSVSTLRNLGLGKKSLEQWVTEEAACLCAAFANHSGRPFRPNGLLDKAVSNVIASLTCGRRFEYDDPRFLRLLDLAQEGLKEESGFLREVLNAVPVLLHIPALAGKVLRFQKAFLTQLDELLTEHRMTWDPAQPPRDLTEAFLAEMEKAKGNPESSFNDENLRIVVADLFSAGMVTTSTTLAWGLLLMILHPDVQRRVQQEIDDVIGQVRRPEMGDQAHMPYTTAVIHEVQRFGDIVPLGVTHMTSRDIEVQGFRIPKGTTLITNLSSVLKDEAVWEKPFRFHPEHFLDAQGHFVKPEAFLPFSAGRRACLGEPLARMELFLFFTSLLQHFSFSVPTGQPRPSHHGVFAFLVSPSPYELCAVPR
# [15] = target: T5, Cytochrome P450 1A2 (Homo sapiens, UniProt P05177); experiment: (§1) Drug metabolism assessed as human […]-mediated compound formation from 5 uM [14C]boceprevir after 120 mins by LC-MS/FSA method relative to total [14C]boceprevir; type: ADME; settings: recombinant enzyme, 2 h
# T5 sequence (P05177 whole entry): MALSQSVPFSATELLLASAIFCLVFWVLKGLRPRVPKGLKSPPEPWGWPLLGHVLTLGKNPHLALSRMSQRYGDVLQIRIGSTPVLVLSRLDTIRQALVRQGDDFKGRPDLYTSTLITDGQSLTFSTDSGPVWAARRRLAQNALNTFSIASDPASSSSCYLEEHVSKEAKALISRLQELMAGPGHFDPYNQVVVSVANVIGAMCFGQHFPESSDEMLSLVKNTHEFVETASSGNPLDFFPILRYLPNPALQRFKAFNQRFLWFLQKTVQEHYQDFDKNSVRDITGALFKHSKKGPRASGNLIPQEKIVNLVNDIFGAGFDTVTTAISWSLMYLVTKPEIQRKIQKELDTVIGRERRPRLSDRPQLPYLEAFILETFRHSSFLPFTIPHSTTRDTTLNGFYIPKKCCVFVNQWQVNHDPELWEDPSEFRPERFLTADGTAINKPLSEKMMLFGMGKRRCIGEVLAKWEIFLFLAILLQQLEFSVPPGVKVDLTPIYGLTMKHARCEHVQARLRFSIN
# [16] = target: T6, Cytochrome P450 1A1 (Homo sapiens, UniProt P04798); experiment: as §1; type: ADME; settings: recombinant enzyme, 2 h
# T6 sequence (P04798 whole entry): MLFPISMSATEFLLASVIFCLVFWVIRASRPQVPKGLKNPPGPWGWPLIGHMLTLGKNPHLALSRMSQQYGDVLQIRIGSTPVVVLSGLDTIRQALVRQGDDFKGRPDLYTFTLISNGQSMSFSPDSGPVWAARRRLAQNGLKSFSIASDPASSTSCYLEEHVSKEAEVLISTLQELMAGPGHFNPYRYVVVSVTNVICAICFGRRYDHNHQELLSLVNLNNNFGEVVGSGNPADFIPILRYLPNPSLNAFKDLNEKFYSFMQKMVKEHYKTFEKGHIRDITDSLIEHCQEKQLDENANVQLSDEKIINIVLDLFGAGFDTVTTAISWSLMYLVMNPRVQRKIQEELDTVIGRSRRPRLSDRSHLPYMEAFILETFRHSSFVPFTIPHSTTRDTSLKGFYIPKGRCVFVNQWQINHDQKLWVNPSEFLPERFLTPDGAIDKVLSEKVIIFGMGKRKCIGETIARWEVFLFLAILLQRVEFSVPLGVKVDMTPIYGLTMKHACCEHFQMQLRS
# [17] = test system: Liver microsome; experiment: Drug metabolism in human liver microsomes treated with 5 uM [14C]boceprevir assessed as compound formation by LC-MS/FSA method relative to total [14C]boceprevir; type: ADME
# [18] = test system: Liver microsome; experiment: Drug metabolism in human liver microsomes treated with 20 uM [14C]boceprevir assessed as compound formation by LC-MS/FSA method relative to total [14C]boceprevir; type: ADME
# [19] = target: Cytochrome P450 2C19 (Homo sapiens, UniProt P33261); experiment: Drug metabolism assessed as human CYP2C19-mediated compound formation from 5 uM [14C]boceprevir after 120 mins by LC-MS/FSA method relative to total [14C]boceprevir; type: ADME; settings: recombinant enzyme, 2 h
# Cytochrome P450 2C19, sequence (P33261 whole entry): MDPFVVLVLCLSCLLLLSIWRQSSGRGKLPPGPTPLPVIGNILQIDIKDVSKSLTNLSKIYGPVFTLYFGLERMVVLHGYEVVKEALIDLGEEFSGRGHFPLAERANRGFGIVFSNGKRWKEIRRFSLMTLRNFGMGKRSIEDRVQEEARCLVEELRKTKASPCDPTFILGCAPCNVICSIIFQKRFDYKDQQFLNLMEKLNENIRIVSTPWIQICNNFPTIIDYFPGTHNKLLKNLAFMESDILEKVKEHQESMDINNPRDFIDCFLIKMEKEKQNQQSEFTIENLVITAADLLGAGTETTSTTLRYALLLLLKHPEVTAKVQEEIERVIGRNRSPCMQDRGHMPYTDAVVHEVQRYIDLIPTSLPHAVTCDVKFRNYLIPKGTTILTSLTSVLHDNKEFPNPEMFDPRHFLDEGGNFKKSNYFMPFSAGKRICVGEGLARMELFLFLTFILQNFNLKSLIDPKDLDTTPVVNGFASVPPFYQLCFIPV
SMILES,inhibition (INH) [1] [%],inhibition (INH) [2] [%],Compound recovery [3] [%],Compound recovery [4] [%],Compound recovery [5],Retention_time [6] [min],Compound recovery [7] [%],Compound recovery [8] [%],Compound recovery [9] [%],Compound recovery [10] [%],Compound recovery [11] [%],Compound recovery [12] [%],Compound recovery [13] [%],Compound recovery [14] [%],Compound recovery [15] [%],Compound recovery [16] [%],Compound recovery [17] [%],Compound recovery [18] [%],Compound recovery [19] [%]
CC(C)(C)NC(=O)N[C@H](C(=O)N1C[C@H]2[C@@H]([C@H]1C(=O)N[C@H](CC1CCC1)[C@@H](O)C(N)=O)C2(C)C)C(C)(C)C,78,63,32,32,>= 50%,43.1,32,,,,,,,,,,,,
CC(C)(C)NC(=O)N[C@H](C(=O)N1C[C@H]2[C@@H]([C@H]1C(N)=O)C2(C)C)C(C)(C)C,,,,,10%,22.2,,2.06,15.74,< 3.45,0.61,2.87,< 4.64,1.9,1.37,2.9,,,
CC(C)(C)NC(=O)N[C@H](C(=O)N1C[C@H]2[C@@H]([C@H]1C(=O)O)C2(C)C)C(C)(C)C,,,,,<= 10%,16.6,,0.22,2.22,4.57,0.24,< 0.81,0.58,,0.29,0.33,4.2,1.1,0.29
